The values below come from US4382939A, “3-[2-(Mono-and dialkylamino)propyl]-1,2,3,4-tetrahydro-5H-[1]benzopyrano[3,4-C]pyridin- 5-ones useful for treating bronchospastic diseases” (Warner Lambert Company, priority 1982, dated 1983).

The test system of assay [1] is bronchospasm (pilocarpine nitrate). Briefly: Inhibition of pilocarpine-induced bronchospasm in anesthetized dogs (pulmonary mechanics). The settings on record: for ED50: Canis lupus familiaris, iv, anesthetized dogs, cumulative i.v. doses, pilocarpine-induced bronchospasm, read-out: ID50 Bronchospasm; for Pulmonary Selectivity*: dogs, i.v., >1 indicates more potent as a bronchodilator than as an antisecretory agent. Format: in vivo, mongrel dogs. The method, then:
(§1) In an additional testing procedure, mongrel dogs of either sex, 10.6 to 15.3 kg, are anesthetized with sodium pentobarbital, 30 mg/kg i.v. and then prepared for the monitoring of pulmonary mechanics. A Buxco pulmonary mechanics computer is used to calculate pulmonary resistance, dynamic compliance, and tidal volume from transpulmonary pressure and flow data. Respiratory rate, heart rate and mean arterial blood pressure are also monitored. The femoral vein is cannulated for the delivery of drugs. Pilocarpine nitrate (0.2 mg/kg/hr) is than infused to induce a bronchospasm and salivary flow. […] Salivary output is collected from a catheterized Wharton's duct at five minute intervals. After salivation has stabilized, 3 control collections are taken at 5 minute intervals followed by a series of cumulative i.v. doses of test compound (1, 3, 10, 30, 100, 300, 1000, 3000, and 10,000 μg/kg) that are injected every 5 minutes for 45 minutes. The percent inhibition of both the bronchospasm and salivation are calculated for each dose with a return to pre-pilocarpine resistance levels or cessation of salivation equal to a 100% inhibition.

Assay [2] has as its system collapse on exposure to an aerosol of methacholine. Briefly: Anticholinergic test: prolongation of collapse time in conscious guinea pigs exposed to an aerosol of methacholine. The format is in vivo. The settings on record: guinea pig, 25 mg/kg intraperitoneally; 10 minutes methacholine aerosol; Control 1.9 to 2.0. As to the method:
The compounds of the invention display anticholinergic properties when tested by the following procedure: Conscious guinea pigs, six at a time, are put into a sealed chamber and exposed for 10 minutes to an aerosol of methacholine. Untreated animals or those treated with vehicle will collapse in 1.9±0.1 minutes. Groups of animals are injected intraperitoneally with 25 mg/kg of test compound and exposed in the chamber under the same conditions. Compounds which prolong the collapse time past that of the control animals are considered active.

Assay [3] relates to salivation (pilocarpine nitrate). Description: Inhibition of pilocarpine-induced salivation in anesthetized dogs. Format: in vivo, mongrel dogs. The settings on record: Canis lupus familiaris, iv, cumulative i.v. doses, pilocarpine-induced salivary flow, read-out: ID50 Salivation. As to the method: as §1

Regarding `CCOc1cc2oc(=O)c3c(c2cc1OCC)CCN(CC(C)N(C)C)C3.Cl.Cl` (stereo not drawn) [EtO EtO H Me Me, 3-[2-(Dimethylamino)propyl]-1,2,3,4-tetrahydro-8,9-diethoxy-5H-[1]benzopyrano[3,4-c]pyridin-5-one dihydrochloride], in assay [1], the ED50 worked out at 0.147 mg/kg and the “Pulmonary Selectivity*” value turned out to be 2.1. Besides, the “(Minutes Protection)” value in assay [2] is 7.3 min. Also, the ED50 in assay [3] is 0.303 mg/kg.
The like results for `CCN(C)C(C)CN1CCc2c(c(=O)oc3cc(C)ccc23)C1` (stereo not drawn) [H Me H Me Et, 3-[2-(Ethylmethylamino)propyl]-1,2,3,4-tetrahydro-8-methyl-5H-[1]benzopyrano[3,4-c]pyridin-5-one] were, in that order, 0.15 mg/kg, 2.2, 8.8 min and 0.336 mg/kg.
Consider `CC(CN1CCc2c(c(=O)oc3ccccc23)C1)N(C)C` (stereo not drawn) [H H H Me Me, 3-[2-(Dimethylamino)propyl]-1,2,3,4-tetrahydro-5H-[1]benzopyrano[3,4-c]pyridin-5-one], for which, in assay [1], the ED50 turned out to be 0.192 mg/kg and the “Pulmonary Selectivity*” value is listed as 22. Moreover, the “(Minutes Protection)” value in assay [2] turned out to be 10.0 min. Moreover, in assay [3], the ED50 was 4.15 mg/kg.
The corresponding values for `Cc1ccc2c3c(c(=O)oc2c1)CN(CC(C)N(C)C)CC3` (stereo not drawn) [H Me H Me Me, 3-[2-(Dimethylamino)propyl]-1,2,3,4-tetrahydro-8-methyl-5H-[1]-benzopyrano[3,4-c]pyridin-5-one] are 0.114 mg/kg, 3.7, 10.0 min and 0.421 mg/kg.
The corresponding values for `CCN(CC)C(C)CN1CCc2c(c(=O)oc3cc(OC)c(OC)cc23)C1.Cl.Cl` (stereo not drawn) [MeO MeO H Et Et, 3-[2-(Diethylamino)propyl]-1,2,3,4-tetrahydro-8,9-dimethoxy-5H-[1]benzopyrano[3,4-c]pyridin-5-one dihydrochloride] are 0.073 mg/kg, 3.5, 7.8 min and 0.257 mg/kg.
The corresponding values for `CCN(CC)C(C)CN1CCc2c(c(=O)oc3cc(C)ccc23)C1` (stereo not drawn) [H Me H Et Et, 3-[2-(Diethylamino)propyl]-1,2,3,4-tetrahydro-8-methyl-5H-[1]benzopyrano[3,4-c]pyridin-5-one] are 0.111 mg/kg, 4.6, 6.6 min and 0.51 mg/kg.
As for `CCN(CC)C(C)CN1CCc2c(c(=O)oc3ccccc23)C1` (stereo not drawn) [H H H Et Et, 3-[2-(Diethylamino)propyl]-1,2,3,4-tetrahydro-5H-[1]benzopyrano[3,4-c]pyridin-5-one], in assay [1], the ED50 came to 0.336 mg/kg and the “Pulmonary Selectivity*” value is 7. The “(Minutes Protection)” value in assay [2] stood at 10.0 min. Besides, in assay [3], the ED50 is 2.31 mg/kg.
The corresponding values for `COc1cc2oc(=O)c3c(c2cc1OC)CCN(CC(C)N(C)C)C3.Cl.Cl` (stereo not drawn) [MeO MeO H Me Me, 3-[2-(Dimethylamino)propyl]-1,2,3,4-tetrahydro-8,9-dimethoxy-5H-[1]benzopyrano[3,4-c]pyridin-5-one dihydrochloride] are 0.098 mg/kg, 4.5, 5.2 min and 0.441 mg/kg.
In the case of `CCNC(C)CN1CCc2c(c(=O)oc3ccccc23)C1` (stereo not drawn) [H H H Et H, 3-[2-(Ethylamino)propyl]-1,2,3,4-tetrahydro-5H-[1]benzopyrano[3,4-c]pyridin-5-one], the ED50 in assay [1] stood at 0.21 mg/kg; in assay [3], 1.23 mg/kg. Further, in assay [1], the “Pulmonary Selectivity*” value is on record as 6. For the same compound, in assay [2], the “(Minutes Protection)” value amounted to 10.0 min.
